Results: patent US20200390100A1, “SUBSTITUTED N-HETEROCYCLYL- AND N-HETEROARYL-TETRAHYDROPYRIMIDINONES AND THE SALTS THEREOF, AND THE USE OF SAME AS HERBICIDAL ACTIVE SUBSTANCES” (Bayer Aktiengesellschaft, priority 2017, published 2020)

Experiments:
Format in all cases: in vivo
Amaranthus retroflexus [1] = experiment: Pre-emergence herbicidal action, greenhouse, 320 g/ha; conditions: application rate 320 g/ha, scored visually after about 3 weeks vs untreated controls
Source text: (§1) Seeds of monocotyledonous and dicotyledonous weed plants and crop plants were placed in plastic or organic planting pots and covered with soil. The compounds of the invention, formulated in the form of wettable powders (WP) or as emulsion concentrates (EC), were then applied to the surface of the covering soil as aqueous suspension or emulsion with addition of 0.5% additive at a water application rate equivalent to […]. After the treatment, the pots were placed in a greenhouse and kept under good growth conditions for the test plants. After about 3 weeks, the effect of the preparations is scored visually in comparison with untreated controls as percentages. For example, 100% activity=the plants have died, 0% activity=like control plants. Tables B1 to B14 below show the effects of selected compounds of the general formula (I) according to Tables I.1 to I.150 on various harmful plants and at an application rate corresponding to 320 g/ha, which were obtained by the experimental procedure mentioned above.

Avena fatua = experiment: as above; conditions: application rate 320 g/ha, scored visually after about 3 weeks vs untreated controls
Source text: as §1

Digitaria sanguinalis = experiment: as above; conditions: application rate 320 g/ha, Table B9
Source text: as §1

Pharbitis purpurea = experiment: as above; conditions: application rate 320 g/ha, Table B12
Source text: as §1

Polygonum convolvulus = experiment: as above; conditions: application rate 320 g/ha, scored visually after about 3 weeks vs untreated controls
Source text: as §1

Setaria viridis = experiment: as above; conditions: application rate 320 g/ha, Table B11
Source text: as §1

Stellaria media [2] = experiment: as above; conditions: application rate 320 g/ha, scored visually after about 3 weeks vs untreated controls
Source text: as §1

Viola tricolor = experiment: as above; conditions: application rate 320 g/ha, Table B8
Source text: as §1

Amaranthus retroflexus [3] = experiment: Herbicidal post-emergence action (Part 2), 1280 g/ha; conditions: application rate 1280 g/ha, rated visually after about 3 weeks, Table C5
Protocol: (§2) Seeds of mono- and dicotyledonous weed plants were placed in plastic pots in sandy loam soil (doubly sown with in each case one species of mono- or dicotyledonous weed plants per pot), covered with soil and cultivated in a greenhouse under controlled growth conditions. 2 to 3 weeks after sowing, the test plants were treated at the one-leaf stage. The compounds of the invention, formulated in the form of wettable powders (WP) or as emulsion concentrates (EC), were applied onto the green parts of the plants as aqueous suspension or emulsion with addition of 0.5% additive at a water application rate of 600 liters per hectare (converted). After the test plants had been kept in the greenhouse under optimum growth conditions for about 3 weeks, the activity of the preparations was rated visually in comparison to untreated controls. For example, 100% activity=the plants have died, 0% activity=like control plants. Tables C1 to C7 below show the effects of selected compounds of the general formula (I) according to Tables 1.1 to 1.150 on various harmful plants and at an application rate corresponding to 1280 g/ha, which were obtained by the experimental procedure mentioned above.

Stellaria media [4] = experiment: as above; conditions: application rate 1280 g/ha, rated visually after about 3 weeks, Table C7
Protocol: as §2

Amaranthus retroflexus [5] = experiment: Herbicidal pre-emergence action (Part 2), 1280 g/ha; conditions: application rate 1280 g/ha, scored visually after about 3 weeks, Table D6
Source text: (§3) Seeds of mono- and dicotyledonous weed plants were placed in plastic pots in sandy loam soil (doubly sown with in each case one species of mono- or dicotyledonous weed plants per pot) and covered with soil. The compounds of the invention, formulated in the form of wettable powders (WP) or as emulsion concentrates (EC), were then applied onto the surface of the covering soil as aqueous suspension or emulsion with addition of 0.5% additive at a water application rate of 600 liters per hectare (converted). After the treatment, the pots were placed in a greenhouse and kept under good growth conditions for the test plants. After about 3 weeks, the effect of the preparations was scored visually in comparison with untreated controls as percentages. For example, 100% activity=the plants have died, 0% activity=like control plants. Tables D1 to D8 below show the effects of selected compounds of the general formula (I) according to Tables 1.1 to 1.150 on various harmful plants and at an application rate corresponding to 1280 g/ha, which were obtained by the experimental procedure mentioned above.

Echinochloa crus-galli = experiment: as above; conditions: application rate 1280 g/ha, scored visually after about 3 weeks, Table D1
Source text: as §3

Matricaria inodora [6] = experiment: as above; conditions: application rate 1280 g/ha, scored visually after about 3 weeks, Table D7
Source text: as §3

Poa annua = experiment: as above; conditions: application rate 1280 g/ha, scored visually after about 3 weeks, Table D3
Source text: as §3

Stellaria media [7] = experiment: as above; conditions: application rate 1280 g/ha, scored visually after about 3 weeks, Table D8
Source text: as §3

Matricaria inodora [8] = experiment: Pre-emergence herbicidal action, greenhouse, 320 g/ha; conditions: application rate 320 g/ha, scored visually after about 3 weeks vs untreated controls
Source text: as §1

Matricaria inodora [9] = experiment: Herbicidal post-emergence action (Part 2), 1280 g/ha; conditions: application rate 1280 g/ha, rated visually after about 3 weeks, Table C6
Protocol: as §2

Alopecurus myosuroides = experiment: Pre-emergence herbicidal action, greenhouse, 320 g/ha; conditions: application rate 320 g/ha, scored visually after about 3 weeks vs untreated controls
Source text: as §1

Abutilon theophrasti = experiment: Herbicidal pre-emergence action (Part 2), 1280 g/ha; conditions: application rate 1280 g/ha, scored visually after about 3 weeks, Table D5
Source text: as §3

| SMILES | Amaranthus retroflexus (efficacy in %) (Amaranthus retroflexus [1]) [%] | Polygonum convolvulus (efficacy in %) (Polygonum convolvulus) [%] | Stellaria media (efficacy in %) (Stellaria media [2]) [%] | Viola tricolor (efficacy in %) (Viola tricolor) [%] | Amaranthus retroflexus (Amaranthus retroflexus [3]) [%] | Stellaria media (Stellaria media [4]) [%] | Amaranthus retroflexus (Amaranthus retroflexus [5]) [%] | Matricaria inodora (Matricaria inodora [6]) [%] | Stellaria media (Stellaria media [7]) [%] | other results |
| --- | --- | --- | --- | --- | --- | --- | --- | --- | --- | --- |
| CN1CCC(O)N(c2noc(C(C)(C)C)c2Br)C1=O (stereo not shown) [I.1-207] | 90 | 100 | 100 | 100 |  |  |  |  |  | Avena fatua (efficacy in %) (Avena fatua): 90%; Digitaria sanguinalis (efficacy in %) (Digitaria sanguinalis): 100%; Pharbitis purpurea (efficacy in %) (Pharbitis purpurea): 100%; Setaria viridis (efficacy in %) (Setaria viridis): 100% |
| CCC(=O)OC1CCN(C)C(=O)N1c1cc(C(F)(F)F)c(Cl)cn1 (stereo not shown) [I.3-451] |  |  |  |  | 100 | 100 | 100 | 90 | 100 | Echinochloa crus-galli (Echinochloa crus-galli): 100%; Poa Annua (Poa annua): 90% |
| COCC(C)(C)c1cc(N2C(=O)N(C)CCC2O)no1 (stereo not shown) [I.1-200] |  |  | 80 | 80 |  |  |  |  |  | Matricaria inodora (efficacy in %) (Matricaria inodora [8]): 90%; Pharbitis purpurea (efficacy in %) (Pharbitis purpurea): 100% |
| CC(=O)OC1CCN(C)C(=O)N1c1cc(C(F)(F)F)c(Cl)cn1 (stereo not shown) [I.2-451] |  |  |  |  | 100 | 100 | 100 | 90 | 100 |  |
| CCCC(=O)OC1CCN(C)C(=O)N1c1cc(C(F)(F)F)ccn1 (stereo not shown) [I.4-449] |  |  |  |  | 100 | 90 | 100 | 100 | 100 | Poa Annua (Poa annua): 90% |
| CC(C)CC(=O)OC1CCN(C)C(=O)N1c1cc(C(F)(F)F)ccn1 (stereo not shown) [I.7-449] |  |  |  |  | 100 |  | 100 | 100 | 100 | Matricaria inodora (Matricaria inodora [9]): 90%; Poa Annua (Poa annua): 90% |
| CN1CCC(O)N(C2=NOC(C)(C)C2)C1=O (stereo not shown) [I.1-709] |  | 100 | 100 |  |  |  |  |  |  | Alopecurus myosuroides (efficacy in %) (Alopecurus myosuroides): 100%; Digitaria sanguinalis (efficacy in %) (Digitaria sanguinalis): 100% |
| CCC(=O)OC1CCN(C)C(=O)N1c1cc(C(F)(F)F)c(Br)cn1 (stereo not shown) [I.3-464] | 90 | 90 | 100 | 100 |  |  |  |  |  | Setaria viridis (efficacy in %) (Setaria viridis): 90% |
| CON1CCC(O)N(c2cc(C(C)(C)C)on2)C1=O (stereo not shown) [I.91-162] | 90 | 100 |  |  |  |  |  |  |  | Alopecurus myosuroides (efficacy in %) (Alopecurus myosuroides): 80%; Digitaria sanguinalis (efficacy in %) (Digitaria sanguinalis): 100% |
| CC1CC(O)N(c2cc(C(F)(F)F)ccn2)C(=O)N1C (stereo not shown) [I.41-449] | 100 |  | 100 | 100 |  |  |  |  |  | Alopecurus myosuroides (efficacy in %) (Alopecurus myosuroides): 90%; Matricaria inodora (efficacy in %) (Matricaria inodora [8]): 100% |
| Cc1c(N2C(=O)N(C)CCC2O)noc1C(C)(C)C (stereo not shown) [I.1-177] | 90 | 100 |  | 90 |  |  |  |  |  | Digitaria sanguinalis (efficacy in %) (Digitaria sanguinalis): 100%; Setaria viridis (efficacy in %) (Setaria viridis): 90% |
| CCCC(=O)OC1CCN(C)C(=O)N1c1cc(C(C)(C)C)no1 (stereo not shown) [I.4-290] |  |  |  |  |  |  | 100 | 90 | 100 | Abutilon theophrasti (Abutilon theophrasti): 100%; Poa Annua (Poa annua): 90% |
| CCCC(=O)OC1CCN(C)C(=O)N1c1cc(C(F)(F)F)c(Cl)cn1 (stereo not shown) [I.4-451] |  |  |  |  | 100 | 100 | 100 |  | 100 |  |
| CN1CCC(O)N(c2cc(C(C)(C)F)ncn2)C1=O (stereo not shown) [I.1-503] |  |  |  | 100 |  |  |  |  |  | Avena fatua (efficacy in %) (Avena fatua): 100%; Matricaria inodora (efficacy in %) (Matricaria inodora [8]): 100% |
| CCCC(=O)OC1CC(C)N(C)C(=O)N1c1cc(C(F)(F)F)ccn1 (stereo not shown) [I.44-449] |  |  |  |  |  | 90 | 100 | 90 | 100 | Echinochloa crus-galli (Echinochloa crus-galli): 100% |
